Laboratory results published in ChEMBL document CHEMBL1932970, “Facile synthesis of 1,2,3-triazole analogs of SGLT2 inhibitors by 'click chemistry'” (Bioorg Med Chem Lett, 2012).
Activity calls are given as the source filed them. The calls are words filed in the database; no cut-off is given here.

tested on: Rattus norvegicus; assay: Antidiabetic activity in fasted Sprague-Dawley rat assessed as increase in urinary glucose excretion at 30 mg/kg, po administered 0.5 hrs before glucose challenge measured after 24 hrs by UV spectrophotometric analysis relative to control; assay type: functional, organism-based; design: dose 30 mg/kg; settings: Urine

Row | SMILES | Activity
1 | OC[C@H]1O[C@@H](Cc2cn(Cc3ccccc3Cl)nn2)[C@H](O)[C@@H](O)[C@@H]1O | Active
2 | OC[C@H]1O[C@@H](Cc2cn(Cc3cc4ccc(Cl)cc4s3)nn2)[C@H](O)[C@@H](O)[C@@H]1O | Active
3 | CCOc1ccc(Cc2cc([C@@H]3O[C@H](CO)[C@@H](O)[C@H](O)[C@H]3O)ccc2Cl)cc1 | Active
4 | Cc1ccc(Cn2cc(C[C@@H]3O[C@H](CO)[C@@H](O)[C@H](O)[C@H]3O)nn2)cc1 | Active
5 | OC[C@H]1O[C@@H](Cc2cn(Cc3ccccc3)nn2)[C@H](O)[C@@H](O)[C@@H]1O | Active
6 | OC[C@H]1O[C@@H](Cc2cn(Cc3nc4ccccc4s3)nn2)[C@H](O)[C@@H](O)[C@@H]1O | Active
7 | OC[C@H]1O[C@@H](Cc2cn(Cc3ccc(-c4ccc(F)cc4)s3)nn2)[C@H](O)[C@@H](O)[C@@H]1O | Active
8 | O=[N+]([O-])c1ccc(Cn2cc(C[C@@H]3O[C@H](CO)[C@@H](O)[C@H](O)[C@H]3O)nn2)cc1 | Active
